Source: patent US8273775B2, “Non-steroidal brassinosteroid mimetic” (priority 2006, dated 2012)

Test system: gene expression in Col-0 seedling shoots
Experiment: Microarray analysis (ATH1 Affymetrix) after BL or abrasin treatment
Assay type: in vivo, Arabidopsis
Conditions: 120 min
Description: FIG. 14: Clustering of gene expression profiles by QT-clust analysis. Clusters illustrating the major patterns of the data sets. Points: BIK-30: 30 μM abrasin 30 min; BL-30: 1 μM brassinolide 30 min; DMSO-30: control DMSO 30 min; BIK-120: 30 μM abrasin 120 min; BL-120: 1 μM brassinolide 120 min; DMSO-120: control DMSO 120 min.
Col-0 seeds were germinated vertically on ½ MS medium for 7 days under 16 h light/8 h dark cycles. The seedlings were overlaid with liquid ½ MS medium containing 1 μM brassinolide (BL, Fuji Chemical Industries, Ltd., Toyama, Japan), 30 μM abrasin (BIK, ChemBridge Corporation) and DMSO and treated for 30 and 120 min. The shoot parts were collected for RNA isolation. All sampling points were performed in three independent experiments. RNA was extracted using RNeasy kit (Qiagene). […] total RNA per array was used to hybridise the ATH1 Affymetrix Arabidopsis arrays according to standard procedure. The overrepresentation analyses were performed using BiNGO software (Maere et al., 2005).
We performed a microarray analysis using the Arabidopsis whole genome chip (Affymetix) to determine whether abrasin activated the expression of BR-inducible genes at transcriptional level. Wild-type Col-0 seedlings were exposed to 1 μM BL, 30 μM ABRASIN and DMSO (mock-treatment) for two time points (30 min and 120 min) and the shoot parts were collected for RNA isolation. The analysis of the variance of the normalized gene expression data took in account the variability parameters affecting the expression level: type of hormone treatment, duration of treatment and the interaction between these two.

O=C(O)CCC(=O)Nc1ccc(Br)cn1 [abrasin, 4-[(5-bromo-2-pyridinyl)amino]-4-oxobutanoic acid]
Fold-change AT4G16780 homeobox-leucine zipper protein 4 (HAT4)/HD-ZIP protein: 0.42
Fold-change AT4G17250 expressed protein: 3.32
Fold-change AT4G17460 homeobox-leucine zipper protein 1 (HAT1)/HD-ZIP protein 1: 0.11
Fold-change AT4G21510 F-box family protein: 2.54
Fold-change AT4G23030 MATE efflux protein-related: 5.25
Fold-change AT4G23070 rhomboid family protein: 3.80
Fold-change AT4G23810 WRKY family transcription factor: 1.00
Fold-change AT4G24160 hydrolase, alpha/beta fold family protein: 2.29
Fold-change AT4G25620 hydroxyproline-rich glycoprotein family protein: 0.49
Fold-change AT4G25780 pathogenesis-related protein: 0.18
Fold-change AT4G27970 C4-dicarboxylate transporter/malic acid transport family protein: 3.04
Fold-change AT4G28240 wound-responsive protein-related: 0.33
Fold-change AT4G28490 leucine-rich repeat transmembrane protein kinase, putative: 2.30
Fold-change AT4G28703 expressed protein: 6.14
Fold-change AT4G28780 GDSL-motif lipase/hydrolase family protein: 1.26
Fold-change AT4G29070 expressed protein: 0.50
Fold-change AT4G30080 transcriptional factor B3 family protein: 0.41
Fold-change AT4G31020 expressed protein: 5.81
Fold-change AT4G32280 auxin-responsive AUX/IAA family protein (IAA29): 0.13
Fold-change AT4G33050 calmodulin-binding family protein: 1.58
Fold-change AT4G33700 CBS domain-containing protein: 0.38
Fold-change AT4G34610 homeodomain-containing protein: 0.41
Fold-change AT4G36110 auxin-responsive protein: 4.62
Fold-change AT4G36780 brassinosteroid signalling positive regulator-related: 0.03
Fold-change AT4G37240 expressed protein: 1.45
Fold-change AT4G37290 expressed protein: 2.45
Fold-change AT4G37590 phototropic-responsive NPH3 family protein: 0.43
Fold-change AT4G38840 auxin-responsive protein (SAUR14): 1.95
Fold-change AT4G38850 auxin-responsive protein (SAUR-AC1): 2.22
Fold-change AT4G38860 auxin-responsive protein (SAUR16): 2.27
Fold-change AT4G39400 brassinosteroid insensitive 1 (BRI1): 0.46
Fold-change AT5G02020 expressed protein: 2.29
Fold-change AT5G05690 cytochrome P450 90A1 (CYP90A1) (CYP90) (CPD): 0.29
Fold-change AT5G07690 myb family transcription factor (MYB29): 0.27
Fold-change AT5G08130 basic helix-loop-helix (bHLH) family protein (BIM2): 0.37
Fold-change AT5G12050 expressed protein: 0.27
Fold-change AT5G13180 no apical meristem (NAM) family protein: 0.39
Fold-change AT5G13740 sugar transporter family protein: 0.23
Fold-change AT5G14730 expressed protein: 0.53
Fold-change AT5G16200 50S ribosomal protein-related: 0.10
Fold-change AT5G16980 NADP-dependent oxidoreductase: 3.07
Fold-change AT5G18750 DNAJ heat shock N-terminal domain-containing protein: 1.26
Fold-change AT5G19200 short-chain dehydrogenase/reductase (SDR) family protein: 1.11
Fold-change AT5G19340 expressed protein: 0.23
Fold-change AT5G24030 C4-dicarboxylate transporter/malic acid transport family protein: 1.66
Fold-change AT5G24660 expressed protein: 3.61
Fold-change AT5G25240 expressed protein: 2.16
Fold-change AT5G25930 leucine-rich repeat family protein: 1.38
Fold-change AT5G27350 sugar-porter family protein 1 (SFP1): 1.56
Fold-change AT5G27670 histone H2A: 0.41
Fold-change AT5G38310 expressed protein: 1.88
Fold-change AT5G38990; AT5G39000 [AT5G38990, protein kinase family protein: 2.08
Fold-change AT5G39050 transferase family protein: 1.83
Fold-change AT5G39610 no apical meristem (NAM) family protein: 0.35
Fold-change AT5G39970 expressed protein: 2.66
Fold-change AT5G42830 transferase family protein: 2.74
Fold-change AT5G47370 homeobox-leucine zipper protein 2 (HAT2): 0.43
Fold-change AT5G48070 putative xyloglucan endotransglycosylase/hydrolase: 3.63
Fold-change AT5G48540 33 kDa secretory protein-related: 2.03
Fold-change AT5G51550 phosphate-responsive 1 family protein: 0.41
Fold-change AT5G54490 calcium-binding EF-hand protein, putative: 3.06
Fold-change AT5G54860 integral membrane transporter family protein: 2.01
Fold-change AT5G55970 zinc finger (C3HC4-type RING finger) family protein: 2.56
Fold-change AT5G56980 expressed protein: 0.22
Fold-change AT5G57190 phosphatidylserine decarboxylase: 1.58
Fold-change AT5G57780 expressed protein: 0.13
Fold-change AT5G59080 expressed protein: 0.40
Fold-change AT5G60200 Dof-type zinc finger domain-containing protein: 3.85
